Test results taken from paper PMC8237303 (Heliyon, 2021).
pIC50, pKd, pKi: −log10 of the molar value. Structures can show the parent of a compound that is named as a salt. Bridge positions count the residues as written; N and C are the ends. Ends that are not written are not given here.

What was measured:
[1] = test system: Nicotinic receptor (Human); assay: [3H]-; format: binding; settings: Human receptor (Non-recombinant)
[2] = test system: Ca channel (Type L, Phenylalkylamine); assay: [3H]-; format: binding; settings: Rat cerebral cortex
[3] = test system: Ca channel (Type L, Benzothiazepine); assay: [3H]-; format: binding; settings: Rat cerebral cortex
PAF receptor = assay: 1-O-Hexadecyl-[3H]-Platelet Activating Factor; format: binding; settings: Rabbit platelet
[4] = target: Adenosine A1 receptor (Human) (Homo sapiens, UniProt P30542); assay: [3H]8-Cyclopentyl-1,3-dipropylxanthine; format: binding; settings: Human recombinant
[5] = target: Dopamine D2 receptor short isoform (Human) (Homo sapiens, UniProt P14416); assay: [3H]-Spiperone binding assay; settings: Human recombinant
[6] = test system: Glutamate receptor (AMPA); assay: D,L-alpha-[3H]-Amino-3-Hydroxy-Methylisoxazole-4-Propionic Acid; format: binding; settings: Rat cerebral cortex
IP3 receptor = assay: D-[3H]-Inositol-1,4,5-Triphosphate binding assay; settings: Rat cerebellum
[7] = target: Glucocorticoid receptor (Human) (Homo sapiens, UniProt P04150); assay: [3H]-Dexamethasone binding assay; settings: Human recombinant
Glucocorticoid receptor (Human), sequence (P04150 whole entry): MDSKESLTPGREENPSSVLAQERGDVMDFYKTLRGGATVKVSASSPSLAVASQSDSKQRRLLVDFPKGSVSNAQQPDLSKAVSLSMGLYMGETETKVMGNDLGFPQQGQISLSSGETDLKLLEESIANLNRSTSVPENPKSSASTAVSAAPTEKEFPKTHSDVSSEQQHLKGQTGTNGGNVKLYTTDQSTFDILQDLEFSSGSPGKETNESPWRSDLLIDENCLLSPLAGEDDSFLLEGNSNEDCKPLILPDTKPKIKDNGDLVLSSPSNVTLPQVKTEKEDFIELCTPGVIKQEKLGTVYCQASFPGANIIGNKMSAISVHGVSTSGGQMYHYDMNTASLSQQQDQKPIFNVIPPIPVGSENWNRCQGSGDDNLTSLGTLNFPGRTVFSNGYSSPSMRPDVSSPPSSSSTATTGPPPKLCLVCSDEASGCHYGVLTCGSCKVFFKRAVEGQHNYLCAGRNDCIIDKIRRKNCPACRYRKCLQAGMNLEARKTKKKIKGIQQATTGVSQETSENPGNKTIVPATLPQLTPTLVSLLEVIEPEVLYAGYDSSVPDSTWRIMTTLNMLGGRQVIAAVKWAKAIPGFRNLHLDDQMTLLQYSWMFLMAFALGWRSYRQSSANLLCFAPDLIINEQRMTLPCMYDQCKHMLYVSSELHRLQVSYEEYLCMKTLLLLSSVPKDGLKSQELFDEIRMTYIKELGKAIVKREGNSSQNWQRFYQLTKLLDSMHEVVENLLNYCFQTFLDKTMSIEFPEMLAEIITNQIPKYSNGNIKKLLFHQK

[8] = test system: GABA A receptor (Benzodiazepine site); assay: [3H]-Flunitrazepam binding assay; settings: Rat whole brain
[9] = target: Dopamine transporter (Human) (Homo sapiens, UniProt Q01959); assay: [3H]-WIN35,428 binding assay; settings: Human recombinant
Dopamine transporter (Human), sequence (Q01959 whole entry): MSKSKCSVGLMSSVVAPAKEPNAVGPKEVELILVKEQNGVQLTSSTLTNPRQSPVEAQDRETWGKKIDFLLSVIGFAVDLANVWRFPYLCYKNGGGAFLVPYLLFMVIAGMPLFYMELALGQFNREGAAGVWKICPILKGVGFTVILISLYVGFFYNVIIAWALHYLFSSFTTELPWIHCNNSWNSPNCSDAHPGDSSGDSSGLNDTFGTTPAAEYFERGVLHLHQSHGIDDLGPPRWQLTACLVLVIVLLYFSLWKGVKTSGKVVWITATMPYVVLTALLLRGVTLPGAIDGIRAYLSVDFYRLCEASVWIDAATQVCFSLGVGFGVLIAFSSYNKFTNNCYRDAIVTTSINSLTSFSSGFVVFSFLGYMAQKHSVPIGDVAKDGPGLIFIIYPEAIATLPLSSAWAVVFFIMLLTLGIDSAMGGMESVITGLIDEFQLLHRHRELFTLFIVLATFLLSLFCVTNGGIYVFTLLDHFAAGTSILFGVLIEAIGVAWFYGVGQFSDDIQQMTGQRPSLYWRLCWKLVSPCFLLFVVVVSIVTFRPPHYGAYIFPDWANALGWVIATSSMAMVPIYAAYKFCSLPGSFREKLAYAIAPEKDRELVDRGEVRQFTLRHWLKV

K Channel KATP = assay: [3H]-Glybenclamide binding assay; settings: Rat whole brain
[10] = test system: Imidazoline receptor (Central); assay: [3H]RX 781094; format: binding; settings: Rat cerebral cortex
[11] = target: Adenosine A3 receptor (Human) (Homo sapiens, UniProt P0DMS8); assay: [125I]-AB-MECA binding assay; settings: Human recombinant
Adenosine A3 receptor (Human), sequence (P0DMS8 whole entry): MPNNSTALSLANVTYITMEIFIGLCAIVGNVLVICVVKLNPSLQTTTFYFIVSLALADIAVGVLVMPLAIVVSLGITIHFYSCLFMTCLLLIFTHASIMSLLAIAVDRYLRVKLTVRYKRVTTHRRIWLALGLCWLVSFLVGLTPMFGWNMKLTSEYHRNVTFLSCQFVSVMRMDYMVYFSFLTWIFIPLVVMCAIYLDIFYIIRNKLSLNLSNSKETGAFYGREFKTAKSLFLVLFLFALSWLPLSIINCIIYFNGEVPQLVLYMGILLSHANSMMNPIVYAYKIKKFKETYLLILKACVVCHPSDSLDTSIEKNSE

[12] = test system: Glutamate (NMDA polyamine site); assay: [3H]-Ifenprodil binding assay; settings: Rat cerebral cortex
[13] = target: Serotonin transporter (Human) (Homo sapiens, UniProt P31645); assay: [3H]-Imipramine hydrochloride binding assay; settings: Human recombinant
Serotonin transporter (Human), sequence (P31645 whole entry): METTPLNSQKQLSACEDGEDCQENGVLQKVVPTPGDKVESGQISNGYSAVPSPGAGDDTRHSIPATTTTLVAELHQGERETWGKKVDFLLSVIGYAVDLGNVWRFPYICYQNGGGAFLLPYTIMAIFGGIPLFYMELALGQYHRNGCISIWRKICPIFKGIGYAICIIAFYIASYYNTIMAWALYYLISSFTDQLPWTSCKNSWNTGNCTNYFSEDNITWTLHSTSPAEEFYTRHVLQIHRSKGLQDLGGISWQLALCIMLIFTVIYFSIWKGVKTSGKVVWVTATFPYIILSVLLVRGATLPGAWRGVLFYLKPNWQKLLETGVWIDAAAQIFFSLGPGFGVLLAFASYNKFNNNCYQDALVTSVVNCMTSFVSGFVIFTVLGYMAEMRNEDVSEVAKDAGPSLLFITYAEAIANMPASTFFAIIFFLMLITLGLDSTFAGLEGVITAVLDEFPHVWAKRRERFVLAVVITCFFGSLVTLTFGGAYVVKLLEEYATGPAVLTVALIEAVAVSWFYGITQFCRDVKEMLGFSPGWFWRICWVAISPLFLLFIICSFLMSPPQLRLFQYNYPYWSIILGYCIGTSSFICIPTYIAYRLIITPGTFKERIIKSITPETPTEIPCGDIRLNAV

[14] = test system: Glutamate receptor (Kainate); assay: [3H]-Kainic Acid binding assay; settings: Rat whole brain
Monoamine transporter = assay: [3H]-α-Dihydrotetrabenazine binding assay; settings: Rabbit platelet
[15] = target: Neurokinin NK1 receptor (Human) (Homo sapiens, UniProt P25103); assay: [125I]-Substance P binding assay; settings: Human recombinant
Neurokinin NK1 receptor (Human), sequence (P25103 whole entry): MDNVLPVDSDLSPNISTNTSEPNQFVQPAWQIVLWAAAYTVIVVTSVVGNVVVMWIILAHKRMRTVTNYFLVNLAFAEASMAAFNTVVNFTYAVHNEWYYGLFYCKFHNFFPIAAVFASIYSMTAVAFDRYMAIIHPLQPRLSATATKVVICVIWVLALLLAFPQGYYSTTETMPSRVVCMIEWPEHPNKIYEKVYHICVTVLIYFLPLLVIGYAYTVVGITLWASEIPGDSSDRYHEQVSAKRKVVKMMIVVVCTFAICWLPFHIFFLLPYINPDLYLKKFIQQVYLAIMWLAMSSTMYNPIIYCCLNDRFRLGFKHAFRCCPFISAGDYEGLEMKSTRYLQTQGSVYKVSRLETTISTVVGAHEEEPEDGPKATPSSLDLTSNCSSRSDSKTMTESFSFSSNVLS

[16] = test system: Glutamate receptor (NMDA agonist site); assay: [3H]-CGP-39653 binding assay; settings: Rat cerebral cortex
Leukotriene B4 receptor = assay: [3H]-Leukotriene B4 binding assay; settings: Guinea pig lung
Leukotriene D4 receptor = Leukotriene D4 receptor (Cavia porcellus, UniProt Q2NNR5); assay: [3H]-Leukotriene D4 binding assay; settings: Guinea pig lung
Leukotriene D4 receptor, sequence (Q2NNR5 whole entry): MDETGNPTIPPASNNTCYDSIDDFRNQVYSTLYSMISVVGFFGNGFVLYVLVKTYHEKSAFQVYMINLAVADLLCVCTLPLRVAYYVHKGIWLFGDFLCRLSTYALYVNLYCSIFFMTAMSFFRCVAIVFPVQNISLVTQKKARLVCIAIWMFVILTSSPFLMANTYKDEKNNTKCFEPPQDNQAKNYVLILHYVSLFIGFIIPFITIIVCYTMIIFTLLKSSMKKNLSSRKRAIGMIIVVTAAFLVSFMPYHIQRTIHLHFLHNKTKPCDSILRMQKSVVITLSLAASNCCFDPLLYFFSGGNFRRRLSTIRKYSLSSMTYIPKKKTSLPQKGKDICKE

[17] = target: Glutamate receptor (NMDAglycine site) (Rattus norvegicus, UniProt P35439); assay: [3H]-MDL105,519 binding assay; settings: Rat cerebral cortex
Glutamate receptor (NMDAglycine site), sequence (P35439 394-800 limits assumed): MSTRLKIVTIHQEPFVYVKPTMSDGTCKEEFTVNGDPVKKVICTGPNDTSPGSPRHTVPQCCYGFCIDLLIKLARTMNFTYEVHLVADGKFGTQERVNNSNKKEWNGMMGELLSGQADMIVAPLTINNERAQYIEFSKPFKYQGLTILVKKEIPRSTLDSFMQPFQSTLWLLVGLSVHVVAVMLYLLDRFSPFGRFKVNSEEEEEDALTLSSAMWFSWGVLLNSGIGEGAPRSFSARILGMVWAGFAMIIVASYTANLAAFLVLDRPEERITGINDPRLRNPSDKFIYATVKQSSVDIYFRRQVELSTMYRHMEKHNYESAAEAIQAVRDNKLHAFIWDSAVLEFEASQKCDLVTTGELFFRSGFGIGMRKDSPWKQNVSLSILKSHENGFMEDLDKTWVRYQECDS

[18] = test system: GABA A receptor (Agonist site); assay: [3H]-Muscimol binding assay; settings: Rat cerebellum
[19] = target: Opiate δ receptor (Human) (Homo sapiens, UniProt P41143); assay: [3H]-Naltrindole binding assay; settings: Human recombinant
Opiate δ receptor (Human), sequence (P41143 whole entry): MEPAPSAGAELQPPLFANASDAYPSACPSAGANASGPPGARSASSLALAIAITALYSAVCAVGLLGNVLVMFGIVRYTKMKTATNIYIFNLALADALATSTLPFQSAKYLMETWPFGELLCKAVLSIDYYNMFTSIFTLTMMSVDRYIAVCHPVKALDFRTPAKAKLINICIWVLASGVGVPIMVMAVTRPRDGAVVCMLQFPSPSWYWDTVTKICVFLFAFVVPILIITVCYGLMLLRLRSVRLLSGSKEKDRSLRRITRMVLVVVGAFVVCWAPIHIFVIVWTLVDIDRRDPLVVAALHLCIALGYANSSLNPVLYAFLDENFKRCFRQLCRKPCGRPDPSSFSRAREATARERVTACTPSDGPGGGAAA

[20] = test system: Ca Channel (Type L, Dihydropyridine); assay: [3H]-PN200-110 binding assay; settings: Rat cerebral cortex
α1B-Adrenergic receptor = α1B-Adrenergic receptor (Rattus norvegicus, UniProt P15823); assay: [3H]-Prazosin binding assay; settings: Rat liver
α1B-Adrenergic receptor, sequence (P15823 whole entry): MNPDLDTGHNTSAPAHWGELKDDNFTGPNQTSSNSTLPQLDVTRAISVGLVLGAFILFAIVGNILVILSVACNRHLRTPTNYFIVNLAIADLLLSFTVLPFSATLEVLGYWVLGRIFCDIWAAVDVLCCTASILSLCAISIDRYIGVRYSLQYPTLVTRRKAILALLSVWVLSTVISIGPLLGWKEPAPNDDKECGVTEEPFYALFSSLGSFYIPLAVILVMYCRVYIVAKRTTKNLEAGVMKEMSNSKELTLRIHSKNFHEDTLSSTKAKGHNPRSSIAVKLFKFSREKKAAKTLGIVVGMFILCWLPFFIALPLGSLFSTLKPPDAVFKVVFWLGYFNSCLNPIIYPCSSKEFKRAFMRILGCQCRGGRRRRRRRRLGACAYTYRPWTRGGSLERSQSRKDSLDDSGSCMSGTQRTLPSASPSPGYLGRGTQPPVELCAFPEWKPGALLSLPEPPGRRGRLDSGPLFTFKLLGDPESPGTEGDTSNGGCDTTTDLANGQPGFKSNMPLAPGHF

α1A-Adrenergic receptor = α1A-Adrenergic receptor (Rattus norvegicus, UniProt P43140); assay: [3H]-Prazosin binding assay; settings: Rat submandibular gland
[21] = target: Prostanoid EP2 receptor (Human) (Homo sapiens, UniProt P43116); assay: [3H]-Prostaglandin E2 binding assay; settings: Human recombinant
Prostanoid EP2 receptor (Human), sequence (P43116 whole entry): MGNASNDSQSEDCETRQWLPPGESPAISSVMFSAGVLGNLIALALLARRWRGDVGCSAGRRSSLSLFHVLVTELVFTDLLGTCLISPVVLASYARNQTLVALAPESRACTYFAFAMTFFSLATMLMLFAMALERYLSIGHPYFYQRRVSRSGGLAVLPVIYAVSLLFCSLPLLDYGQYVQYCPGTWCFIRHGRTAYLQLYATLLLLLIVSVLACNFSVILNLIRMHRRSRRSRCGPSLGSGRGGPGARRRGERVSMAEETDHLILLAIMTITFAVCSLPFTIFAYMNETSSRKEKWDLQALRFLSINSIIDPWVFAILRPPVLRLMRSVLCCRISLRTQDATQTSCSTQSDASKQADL

[22] = test system: Glycine receptor (Strychnine sensitive); format: binding; settings: Rat spinal cord
[23] = target: GABA A receptor (Picrotoxin site); assay: [3H]-EBOB binding assay; parameters: species or system Rat
[24] = test system: Glutamate receptor (NMDA phencycidine site); assay: [3H]-; format: binding; settings: Rat cerebral cortex
K Channel SkCa = assay: [125I]-Apamin binding assay; settings: Rat whole brain
[25] = test system: Bombesin receptor (Non-selective); assay: [125I]-Bombesin binding assay; settings: Rat whole brain
[26] = target: Neurokinin NK3 receptor (Human) (Homo sapiens, UniProt P29371); assay: [125I]-Neurokinin B; format: binding; settings: Human recombinant
CRF1 receptor (Human) = target: T1, CRF1 receptor (Human) (Homo sapiens, UniProt P34998); assay: [125I]-Corticotropin Releasing Factor; format: binding; settings: Human recombinant
T1 sequence (P34998 24-415): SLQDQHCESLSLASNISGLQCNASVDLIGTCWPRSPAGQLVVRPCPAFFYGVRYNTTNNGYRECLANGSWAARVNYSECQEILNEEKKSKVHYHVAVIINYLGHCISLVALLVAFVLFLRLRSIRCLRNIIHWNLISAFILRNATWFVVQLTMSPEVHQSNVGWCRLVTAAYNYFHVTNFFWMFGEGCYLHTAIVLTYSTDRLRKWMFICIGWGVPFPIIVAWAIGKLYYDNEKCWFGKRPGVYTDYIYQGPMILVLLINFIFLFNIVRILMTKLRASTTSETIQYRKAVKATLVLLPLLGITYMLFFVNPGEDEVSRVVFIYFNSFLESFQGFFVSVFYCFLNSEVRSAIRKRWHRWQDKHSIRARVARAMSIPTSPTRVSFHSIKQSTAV

Cl.Cl.Clc1ccc(C2CC3CCC2N3)cn1.O (racemic) [(±)-Epibatidine dihydrochloride hydrate]
Inhibition by a positive substance (%) [1]: 100%

COc1ccc(CCN(C)CCCC(C#N)(c2cc(OC)c(OC)c(OC)c2)C(C)C)cc1OC.Cl (racemic) [(±)-Methoxyverapamil hydrochloride]
Inhibition by a positive control substance (%) [2]: 100%

COc1ccc([C@@H]2Sc3ccccc3N(CCN(C)C)C(=O)[C@@H]2OC(C)=O)cc1.Cl (relative stereo) [(+)-cis-Diltiazem hydrochloride]
Inhibition by a positive substance (%) [3]: 96.98%

CCCCCCCCCCCCCCCCOC[C@@H](O)COP(=O)([O-])OCC[N+](C)(C)C [1-O-Palmityl-sn-glycero-3-phosphocholine]
Inhibition by a positive substance (%) (PAF receptor): 100%

CCCn1c(=O)c2[nH]c(C3CCCC3)nc2n(CCC)c1=O [8-Cyclopentyl-1,3-dipropylxanthine]
Inhibition by a positive substance (%) [4]: 96.61%

CC(C)(C)[C@]1(O)CCN2C[C@H]3c4ccccc4CCc4cccc(c43)[C@@H]2C1 [(+)-Butaclamol hydrochloride]
Inhibition by a positive substance (%) [5]: 94.16%

Cc1o[nH]c(=O)c1C[C@H](N)C(=O)O [(S)-AMPA]
Inhibition by a positive substance (%) [6]: 100%

O=P([O-])([O-])OC1C(O)C(O)C(OP(=O)([O-])[O-])C(OP(=O)([O-])[O-])C1O.[K+].[K+].[K+].[K+].[K+].[K+] [D-myo-Inositol 1,4,5-trisphosphate potassium salt]
Inhibition by a positive substance (%) (IP3 receptor): 100%

C[C@@H]1C[C@H]2[C@@H]3CCC4=CC(=O)C=C[C@]4(C)[C@@]3(F)[C@@H](O)C[C@]2(C)[C@@]1(O)C(=O)CO [Dexamethasone]
Inhibition by a positive substance (%) [7]: 99.36%

CN1C(=O)CN=C(c2ccccc2)c2cc(Cl)ccc21 [Diazepam]
Inhibition by a positive substance (%) [8]: 100%

Fc1ccc(C(OCCN2CCN(CCCc3ccccc3)CC2)c2ccc(F)cc2)cc1 [GBR12909 dihydrochloride]
Inhibition by a positive control substance (%) [9]: 99.41%

COc1ccc(Cl)cc1C(=O)NCCc1ccc(S(=O)(=O)NC(=O)NC2CCCCC2)cc1 [Glibenclamide]
Inhibition by a positive substance (%) (K Channel KATP): 100%

CC(=O)O.N=C(N)N/N=C/c1c(Cl)cccc1Cl [Guanabenz acetate salt]
Inhibition by a positive substance (%) [10]: 100%

CNC(=O)[C@H]1O[C@@H](n2cnc3c(NCc4cccc(I)c4)ncnc32)[C@H](O)[C@@H]1O [IB-MECA]
Inhibition by a positive substance (%) [11]: 99.41%

CC(C(O)c1ccc(O)cc1)N1CCC(Cc2ccccc2)CC1.CC(C(O)c1ccc(O)cc1)N1CCC(Cc2ccccc2)CC1.O=C(O)C(O)C(O)C(=O)O (stereo not drawn) [Ifenprodil tartrate salt]
Inhibition by a positive substance (%) [12]: 99.68%

CN(C)CCCN1c2ccccc2CCc2ccccc21 [Imipramine hydrochloride]
Inhibition by a positive substance (%) [13]: 96.87%

C=C(C)[C@H]1CN[C@H](C(=O)O)[C@H]1CC(=O)O.O [Kainic acid monohydrate]
Inhibition by a positive substance (%) [14]: 100%

O=C(O)C(O)C(O)C(=O)O.O=C(c1ccc(F)cc1)C1CCN(CCn2c(=O)[nH]c3ccccc3c2=O)CC1 [Ketanserin tartrate salt]
Inhibition by a positive substance (%) (Monoamine transporter): 100%

Ic1ccccc1CN[C@@H]1C2CCN(CC2)[C@@H]1C(c1ccccc1)c1ccccc1 [L-703,606 oxalate salt hydrate]
Inhibition by a positive substance (%) [15]: 99.87%

Cl.N[C@@H](CCC(=O)O)C(=O)O [L-Glutamic acid hydrochloride]
Inhibition by a positive substance (%) [16]: 100%

CCCCC/C=C\C[C@@H](O)/C=C/C=C/C=C\[C@@H](O)CCCC(=O)O [Leukotriene B4]
Inhibition by a positive control substance (%) (Leukotriene B4 receptor): 92.71%

CCCCC/C=C\C\C=C/C=C/C=C/[C@@H](SC[C@H](N)C(=O)NCC(=O)O)[C@@H](O)CCCC(=O)O [Leukotriene D4]
Inhibition by a positive substance (%) (Leukotriene D4 receptor): 96.63%

O=C(O)/C(=C/c1c(C(=O)O)[nH]c2cc(Cl)cc(Cl)c12)c1ccccc1 [MDL105,519]
Inhibition by a positive substance (%) [17]: 100%

NCc1cc(=O)[nH]o1 [Muscimol]
Inhibition by a positive substance (%) [18]: 99.04%

CS(=O)(=O)O.Oc1ccc2c3c1O[C@H]1c4oc5ccccc5c4C[C@@]4(O)[C@@H](C2)N(CC2CC2)CC[C@]314 [Naltriben methanesulfonate hydrate]
Inhibition by a positive substance (%) [19]: 100%

CCOC(=O)C1=C(C)NC(C)=C(C(=O)OC)C1c1cccc([N+](=O)[O-])c1 (stereo not drawn) [Nitrendipine]
Inhibition by a positive substance (%) [20]: 100%

COc1cc2nc(N3CCN(C(=O)c4ccco4)CC3)nc(N)c2cc1OC [Prazosin hydrochloride]
Inhibition by a positive substance (%) (α1B-Adrenergic receptor): 100%
Inhibition by a positive substance (%) (α1A-Adrenergic receptor): 100%

CCCCC[C@H](O)/C=C/[C@H]1[C@H](O)CC(=O)[C@@H]1C/C=C\CCCC(=O)O [Prostaglandin E2]
Inhibition by a positive substance (%) [21]: 100%

O=C1C[C@@H]2OCC=C3CN4CC[C@]56c7ccccc7N1[C@H]5[C@H]2[C@H]3C[C@H]46 [Strychnine]
Inhibition by a positive substance (%) [22]: 98.79%

C#Cc1ccc(C23OCC(CCC)(CO2)CO3)cc1 [[^3H]-EBOB, [^3H]-ethynylbicycloorthobenzoate]
pKd ([23]; read-out: Kd (nmol/L), binding of the radio-labeled ligand, 7 concentrations, GABAA (Picrotoxin site)): 8.38

(+)-MK-801 hydrogen maleate
Inhibition by a positive substance (%) [24]: 100%

Apamin (CNCKAPETALCARRCQQH-NH2; disulfide 1-11, 3-15; ends not checked; UniProt P01500 28-45, looked up)
Inhibition by a positive substance (%) (K Channel SkCa): 100%

Bombesin acetate hydrate
Inhibition by a positive control substance (%) [25]: 98.81%

Picrotoxin
Inhibition by a positive control substance (%) ([23]; Rat cerebral cortex): 94.33%
pIC50 ([23]; read-out: IC50 for inhibition of the [3H]-EBOB binding, rat cerebral cortex preparation, 7 concentrations, duplicate): 6.22
pKi ([23]; read-out: Ki (mol/L), inhibition of the binding of [3H]-EBOB, GABAA (Picrotoxin site), Ki=IC50/(1+[L/Kd])): 6.50

Succinyl-[Asp 6, N–Me-Phe 8]-Substance P Fragment 6–11
Inhibition by a positive substance (%) [26]: 100%

Urocortin human (DNPSLSIDLTFHLLRTLLELARTQSQRERAEQNRIIFDSV; ends and bridges not checked; UniProt P55089 83-122, looked up)
Inhibition by a positive substance (%) (CRF1 receptor (Human)): 100%
